In patent US20080260705A1, “Preventing Arrhythmias Associated with Cell Transplantation” (The Johns Hopkins University, priority 2004, published 2008):

Tests used:
[1] = test system: SkM:NRVM co-cultures; assay: Pharmacological intervention for induced reentrant arrhythmias, optical mapping of mixed co-cultures; type: cell-based; settings: n=12
Procedure: Human skeletal myoblasts were obtained from Cambrex (Walkersville, Md.) and grown in myoblast basal growth medium (SkBM, Clonetics) containing 10% fetal bovine serum, recombinant human epidermal factor (10 ng/ml), dexamethasone (3 μg/ml), L-glutamine, Gentamicin and Amphotericin-B, at 37° C. and 5% CO2. (Vials obtained from Cambrex contained 70-80% myoblasts, and the remainder were fibroblasts). The cells were seeded at 3,500 cells/cm^2 and maintained at cell densities of 60-70% to prevent myotube formation during the culture process. Cells were transduced with lentivirus on their second passage and frozen at −80° C. or amplified up to 10 population doublings. For co-cultures, myoblasts were dissociated using trypsin, counted and then used.
Cells were re-suspended in M199 culture medium (Life Technologies, Rockville, Md.), supplemented with 10% heat-inactivated fetal bovine serum (Life Technologies), differentially pre-plated in two 45 minute steps, and then counted using a hemocytometer. For control experiments, 10^6 cells were plated on 22 mm plastic coverslips coated with fibronectin (25 μg/ml). On day 2 after cell plating, serum was reduced to 2%.
Myoblasts and NRVMs were co-cultured (isotropic) on 22 mm plastic cover slips (coated with fibronectin, 25 μg/ml) for 9-11 days and then used for optical mapping. In an initial set of experiments, 0.5×10^6 NRVMs were plated over half of the cover slip, with the other half covered by a PDMS stamp coated with fibronectin (50 μg/ml). The PDMS stamp was removed 24 hours later and 0.5×10^6 myoblasts transduced with Lv-GFP were then plated. […] In a second set of experiments, the myoblasts (transduced with LvGFP) and NRVMs were plated at the same time in varying ratios: 1:1, 1:4 and 1:9 to study the electrophysiologic consequences of mixing the two cell types.
(§1) Coverslips were visually inspected under a microscope. Monolayers with obvious gaps in confluency and non-beating cultures were rejected. The coverslips were placed in a custom-designed chamber, stained with 5 μM di-4-ANEPPS (Molecular Probes; Eugene, Oreg.) for 5 min and continuously superfused with warm (36.5° C.) oxygenated Tyrode solution consisting of (in mM) 135 NaCl, 5.4 KCl, 1.8 CaCl2, 1 MgCl2, 0.33 NaH2PO4, 5 HEPES, and 5 Glucose. A unipolar point or area electrode (4 bipolar line electrodes) was used to stimulate the cells in culture. Action potentials were recorded from 253 sites using a modified custom-built contact fluorescence imaging system.^15 The recording chamber was placed directly above a fiber bundle with fibers arranged in a 17 mm-diameter hexagonal array. A light emitting diode (LED) light source with an interference filter (530+/−25 mm) delivered excitation light to the chamber. […]

[2] = test system: L-type calcium channel; assay: Nitrendipine dose response curve: APD and conduction velocity by optical mapping; type: cell-based; settings: nitrendipine 5 μM
Procedure: as §1
Baseline drift was reduced by subtraction of a fitted polynomial curve from the optical signal. […] To compare velocities among different episodes in the same monolayer, conduction velocity was calculated along the same path and averaged over different stimulus responses. […] Data are expressed as Mean +/−SEM unless stated otherwise. Differences between means were assessed using the Student's t test or Fischer's exact test.

CCOC(=O)C1=C(C)NC(C)=C(C(=O)OC)C1c1cccc([N+](=O)[O-])c1 (centres unmarked) [nitrendipine]
slowed the reentrant rhythms ([1]; nitrendipine 5 μM superfused, before termination): 10-20% | time to abrupt termination of reentry ([1]; nitrendipine 5 μM, in all co-cultures): ≤ 5 min | shortened APD [2]: 50%

CCN(CC)CC(=O)Nc1c(C)cccc1C [lidocaine]
termination of reentry ([1]; lidocaine 200 μM superfused, co-cultures): did not terminate it in the majority of co-cultures | slowed the reentry rate ([1]; lidocaine 200 μM superfused, induced reentry in co-cultures): 70-80%
